Here are results for 78 compounds from the RepoRT retention time repository (doi:10.1093/pcp/pcn183).

The data set in a line: RP, Waters ACQUITY UPLC BEH C18, 38 °C, 0.24 mL/min; A: water + 0.1% formic acid, pH 3; B: acetonitrile + 0.1% formic acid, pH 3; gradient (min/%B) 0/0 0.25/0 0.4/9 0.8/17 1.9/100 2.1/100 2.11/0 3/0. Conditions: stereoisomer not certain.

Structures can show the parent of a compound that is named as a salt.

As for `Nc1nc2c(ncn2C2OC(COP(=O)(O)O)C(O)C2O)c(=O)[nH]1` (stereo not drawn) [Guanosine-5'-monophosphate], the LC retention time stood at 0.44 min. In the case of `O=C(O)CNC(=O)c1ccccc1` [Hippuric Acid] it was 1.29 min; in that of `O=C(CCc1ccc(O)cc1)c1c(O)cc(O)cc1OC1OC(CO)C(O)C(O)C1O` (stereo not drawn) [Phloridzin], 1.49 min. In the case of `O=c1cc[nH]c(=O)[nH]1` [Uracil] it was 0.31 min. For `NC(CSS(=O)(=O)O)C(=O)O` (stereo not drawn) [S-Sulfocysteine] the value was 0.17 min; for `NC(=O)c1ccc[n+](C2OC(COP(=O)([O-])O)C(O)C2O)c1` (stereo not drawn) [beta-Nicotinamide mononucleotide], 0.24 min; for `CCC(C)C(=O)C(=O)O` (racemic) [(+-)-3-Methyl-2-oxovaleric acid sodium salt], 1.21 min.

Take `COC1C(O)C(O)C(O)C(O)C1O` [D-Pinitol]: the LC retention time turned out to be 0.17 min.

As to `CC(N)(Cc1cnc[nH]1)C(=O)O` (racemic) [alpha-Methyl-DL-histidine dihydrochloride], the LC retention time was 0.16 min. In the case of `N[C@@H](Cc1c[nH]c2ccccc12)C(=O)O` [L-Tryptophane] it was 1.16 min; in that of `NCC(CC(=O)O)c1ccc(Cl)cc1` (racemic) [(+-)-Baclofen], 1.24 min. In the case of `CC[C@H](N)C(=O)O` [L-2-Aminobutyric acid] it was 0.18 min; in that of `Nc1ccnc(=O)[nH]1` [Cytosine], 0.19 min. In the case of `N[C@@H](CO)C(=O)O` [L-Serine], the LC retention time came to 0.16 min. For `Cc1cn(C2CC(O)C(CO)O2)c(=O)[nH]c1=O` (stereo not drawn) [Thymidine] the value was 1.11 min; for `Nc1ccccc1C(=O)CC(N)C(=O)O` [L-Kynurenine], 1.1 min; for `COc1cc(-c2oc3cc(O)cc(O)c3c(=O)c2OC2OC(CO)C(O)C(O)C2O)cc(OC)c1O` (stereo not drawn) [syringetin-3-O-glucoside], 1.45 min.

On to `OC1COC(OC2COC(O)C(O)C2O)C(O)C1O` (stereo not drawn) [Xylobiose], for which the LC retention time amounted to 0.18 min. In the case of `COc1ccc(-c2coc3cc(OC4OC(CO)C(O)C(O)C4O)cc(O)c3c2=O)cc1` (stereo not drawn) [Sissotrin] it was 1.61 min; in that of `NCC(=O)CCC(=O)O` [delta-Aminolevulinic acid hydrochloride], 0.18 min; in that of `Cc1cnc(=O)[nH]c1N` [5-Methylcytosine hydrochloride], 0.25 min. For `NC(=O)CCCCC1CCSS1` (racemic) [DL-Thioctamide] the value was 1.57 min; for `O=c1c(OC2OC(CO)C(O)C(O)C2O)c(-c2ccc(O)c(O)c2)oc2cc(O)cc(O)c12` (stereo not drawn) [Hyperoside], 1.4 min. In the case of `NC12CC3CC(CC(C3)C1)C2` [Amantadine hydrochloride] it was 1.28 min; in that of `CSC[C@H](N)C(=O)O` [S-Methyl-L-cysteine], 0.2 min. Consider `O=c1c(-c2ccc(O)cc2)coc2cc(O)ccc12` [Daidzein], for which the LC retention time came to 1.57 min. For `CCCCCCCCCCCCCCCC(O)C(N)CO` [D-erythro-Dihydrosphingosine] the value was 1.98 min; for `O=C(O)/C=C/c1ccccc1` [trans-Cinnamic acid], 1.64 min; for `O=C1CC(c2ccc(O)cc2)Oc2cc(O)cc(O)c21` (stereo not drawn) [naringenin], 1.67 min. For `O=C(O)CC(O)C(=O)O` [L-(-)-Malic acid] the value was 0.23 min; for `CC(C)C(O)(CC(=O)O)C(=O)O` (stereo not drawn) [2-Isopropylmalic acid], 1.21 min; for `Nc1ccn(C2OC(COP(=O)(O)O)C(O)C2O)c(=O)n1` (stereo not drawn) [Cytidine-5'-monophosphate monohydrate], 0.24 min. In the case of `CCC=CCC1C(=O)CCC1CC(=O)OC` (stereo not drawn) [Methyl Jasmonate], the LC retention time came out at 1.93 min. In the case of `C[C@@H](N)P(=O)(O)O` [(S)-(+)-1-Aminoethylphosphonic acid] it was 0.16 min; in that of `O=C(O)c1cc(=O)c2ccccc2[nH]1` [Kynurenic acid], 1.19 min.

Consider `O=P(O)(O)O[C@H]1O[C@H](CO)[C@H](O)[C@H](O)[C@H]1O` [alpha-D-Galactose-1-phosphate dipotassium salt pentahydrate], for which the LC retention time came out at 0.16 min. For `C[n+]1cccc(C(=O)[O-])c1` [Trigonelline hydrochloride] the value was 0.19 min; for `Nc1nc2c(ncn2C2CC(O)C(COP(=O)(O)O)O2)c(=O)[nH]1` (stereo not drawn) [2'-deoxyguanosine 5'-monophosphate sodium salt hydrate], 0.72 min; for `O=C(O)c1ccccc1O` [Salicylic Acid], 1.55 min. For `COc1ccccc1C=CC(=O)O` [2-Methoxycinnamic acid], the LC retention time worked out at 1.68 min. `NCC(=O)O` [Glycine]: the LC retention time came to 0.16 min. For `C[N+](C)(C)CCOP(=O)([O-])OCC(O)CO` (stereo not drawn) [sn-Glycero-3-phosphocholine 1:1 cadmium chloride adduct] the value was 0.17 min. In the case of `N[C@@H](Cc1ccc(O)c(O)c1)C(=O)O` [3,4-Dihydroxy-L-phenylalanine] it was 0.4 min; in that of `O=c1cc(-c2ccc(O)c(O)c2)oc2cc(OC3OC(CO)C(O)C(O)C3O)cc(O)c12` (stereo not drawn) [luteolin-7-O-glucoside], 1.41 min. For `CC[C@H](C)[C@H](N)CC(=O)O` [L-beta-Homoisoleucine hydrochloride] the value was 1.1 min; for `C[N+](C)(C)CC(=O)[O-]` [Betaine], 0.17 min.

Consider `Nc1ccc(C(=O)O)cc1` [4-Aminobenzoic acid], for which the LC retention time came out at 1.13 min.

Take `NCCS(=O)O` [Hypotaurine]: the LC retention time was determined as 0.16 min. In the case of `Oc1cc(O)c2cc(OC3OCC(O)C(O)C3O)c(-c3ccc(O)c(O)c3)[o+]c2c1` (stereo not drawn) [Cyanidin-3-O-alpha-arabinopyranoside], the LC retention time came out at 1.23 min.

As to `O=C(O)/C=C/c1ccc(O)cc1` [4-Coumaric acid], the LC retention time turned out to be 1.41 min.

Regarding `CN1CCCC1c1cccnc1` (racemic) [(-)-Nicotine ( solution 1.0 mg/mL+/-5% in methanol)], the LC retention time was found to be 0.47 min. For `O=c1cc(-c2ccc(O)c(O)c2)oc2c(C3OC(CO)C(O)C(O)C3O)c(O)cc(O)c12` (stereo not drawn) [Orientin] the value was 1.35 min; for `COc1cc(CNC(=O)CCCCCCC(C)C)ccc1O` [Dihydrocapsaicin], 2 min. For `O=C(O)c1ccco1` [2-Furoic acid] the value was 1.15 min; for `N[C@@H](CCO)C(=O)O` [L-Homoserine], 0.17 min.

As for `CC(C)(CO)C(O)C(=O)NCCC(=O)O` (stereo not drawn) [Calcium (+)-pantothenate], the LC retention time is 1.11 min. In the case of `CC(C)CC(N)C(=O)O` [L-Leucine, (Cell Culture Reagent, Crystalline)] it was 0.53 min. In the case of `O=C(O)C=Cc1cnc[nH]1` [urocanic acid] it was 0.38 min; in that of `Nc1ccn(C2CC(O)C(CO)O2)c(=O)n1` (stereo not drawn) [2'-Deoxycytidine], 0.45 min; in that of `NC(=O)C[C@H](N)C(=O)O` [L-Asparagine], 0.16 min. For `CC(O)C(=O)SCC(NC(=O)CCC(N)C(=O)O)C(=O)NCC(=O)O` (stereo not drawn) [S-Lactoylglutathione] the value was 1.06 min; for `CCCCCCN` [Hexylamine], 1.21 min.

On to `OCC1OC(OC2(CO)OC(CO)C(O)C2O)C(O)C(O)C1O` (stereo not drawn) [Sucrose], for which the LC retention time was determined as 0.22 min.

For `Cc1ncc(CO)c(C=O)c1O` [pyridoxal hydrochrolide], the LC retention time is 0.38 min. With `O=C(O)[C@H](O)[C@@H](O)[C@H](O)[C@H](O)CO` [D-Gluconic acid sodium salt], the LC retention time is 0.17 min. In the case of `CC1(C(=O)O)CCC2(C)CCC3(C)C(=CC(=O)C4C5(C)CCC(OC6OC(C(=O)O)C(O)C(O)C6OC6OC(C(=O)O)C(O)C(O)C6O)C(C)(C)C5CCC43C)C2C1` (stereo not drawn) [Glycyrrhizin] it was 1.7 min; in that of `CC(=CCNc1ncnc2c1ncn2C1OC(CO)C(O)C1O)CO` (stereo not drawn) [trans-Zeatin-riboside], 1.16 min; in that of `Nc1ncnc2c1ncn2C1OC(COP(=O)(O)O)C(O)C1O` (stereo not drawn) [Adenosine-5'-monophosphate sodium salt], 0.39 min. With `C[N+](C)(C)[O-]` [Trimethylamine N-oxide dihydrate], the LC retention time was 0.18 min. For `CCCCCCCCCCCCCCCC(O)C(CO)NC(=O)CCCCCCC` [N-Octanoylsphinganine,D-erythro] the value was 0.56 min; for `CC1OC(OCC2OC(Oc3cc4c(O)cc(O)cc4[o+]c3-c3cc(O)c(O)c(O)c3)C(O)C(O)C2O)C(O)C(O)C1O` (stereo not drawn), 1.15 min. In the case of `NCC(N)C(=O)O` (racemic) [DL-2,3-Diaminopropionic acid monohydrochloride] it was 0.15 min; in that of `Nc1ccc(C(=O)NCC(=O)O)cc1` [4-Aminohippurate], 0.93 min; in that of `COc1cc(C=CC=O)ccc1O` [4-Hydroxy-3-methoxycinnamaldehyde], 1.52 min. In the case of `Cc1ncsc1CCO` [4-Methyl-5-thiazoleethanol] it was 1.08 min; in that of `CNCC(O)c1cccc(O)c1` [(R)-(-)-Phenylephrine hydrochloride], 0.59 min; in that of `NCCCCC(=O)O` [5-Aminovaleric acid], 0.23 min. With `CC(C)[C@@H](O)C(=O)O` [D-alpha-Hydroxyisovaleric acid], the LC retention time came to 1.14 min.
